Reference: patent US12233036B2, “Inhibitors of autophagy and DCAR-1 as novel anthelmintic agents” (FLORIDA ATLANTIC UNIVERSITY BOARD OF TRUSTEES, priority 2019, dated 2025)

Tested on: wild type C. elegans
Test: Pheromone-induced dauer formation in wild type C. elegans in the presence of DHCA
Assay type: in vivo
Details: wild type (N2) C. elegans treated by pheromone, pheromone alone around 20% dauer
Method: FIG. 5 is a bar graph showing that dihydrocaffeic acid (DHCA) is the ligand for DCAR-1 GPCR. DHCA is the food signal that competes with the dauer-inducing pheromone to suppress dauer formation. (*P<0.01, t-test, N2 treated with 0 nM DHCA compared to N2 treated with 25 nM DHCA and N2 treated with 25 nM DHCA compared to N2 treated with 100 nM DHCA. ns, no statistical significant difference.) Recovery of dauer larvae requires the presence of food. G protein-coupled receptors (GPCRs) detect molecules such as food odors and activate internal signal transduction pathways. We identified a GPCR, DCAR-1, which is involved in detection of food signals in C. elegans. […] The recovery percentage of daf-2 and daf-7 mutant dauer larvae decreased by 25% when dcar-1 is mutated. Dihydrocaffeic acid (DHCA) is the ligand for DCAR-1. […] When wild type C. elegans was treated by pheromone, around 20% of animals entered dauer. However, in the presence of 25 nM DHCA, the percentage of dauer was decreased to 5%. […] Thus, DCAR-1 inhibitors act to block detection of foods signals by infective nematode parasites and to suppress the growth of parasites to adults.

O=C(O)CCc1ccc(O)c(O)c1 [DHCA, Dihydrocaffeic acid]
percentage of dauer (25 nM DHCA): 5%
percentage of dauer (100 nM DHCA): none of animals formed dauer
